Test: molar heat capacity at constant pressure
Details: 101.33 kPa, Crystal, DSC

CSCCC(N)C(=O)O (racemic) [DL-2-amino-4-(methylthio)butanoic acid]
Details	molar heat capacity at constant pressure [J/K/mol]
208.72 K	145.39
210.22 K	145.59
211.72 K	146.57
213.72 K	147.97
216.22 K	150.38
218.22 K	152.14
221.72 K	155.91
224.22 K	157.49
226.72 K	159.11
227.22 K	159.42
230.22 K	161.3
233.22 K	162.93
236.22 K	164.63
239.22 K	166.6
243.22 K	168.79
247.22 K	170.83
252.22 K	173.41
256.72 K	176.16
260.72 K	178.94
264.22 K	181.37
268.72 K	184.35
271.22 K	184.84
273.22 K	187.3
276.72 K	190.45
279.72 K	192.56
283.22 K	194.93
287.22 K	196.84
291.72 K	199.53
292.22 K	199.85
293.22 K	200.43
294.22 K	201.59
295.22 K	202.47
297.72 K	205.07
298.15 K	205.16
298.22 K	205.65
298.72 K	205.99
301.72 K	208.47
303.72 K	209.85
305.72 K	211.52
307.72 K	212.85
310.22 K	214.89
314.22 K	218.21
318.22 K	222.26
321.22 K	225.76

O=C(O)c1ccccc1 [benzoic acid]
Details	molar heat capacity at constant pressure [J/K/mol]
208.72 K	104.86
210.22 K	105.69
211.72 K	106.52
213.72 K	107.61
216.22 K	108.96
218.22 K	110.02
221.72 K	111.86
224.22 K	113.15
226.72 K	114.43
227.22 K	114.68
230.22 K	116.19
233.22 K	117.68
236.22 K	119.14
239.22 K	120.59
243.22 K	122.5
247.22 K	124.38
252.22 K	126.69
256.72 K	128.74
260.72 K	130.54
264.22 K	132.1
268.72 K	134.09
271.22 K	135.19
273.22 K	136.06
276.72 K	137.59
279.72 K	138.9
283.22 K	140.41
287.22 K	142.15
291.72 K	144.1
292.22 K	144.31
293.22 K	144.75
294.22 K	145.18
295.22 K	145.61
297.72 K	146.7
298.15 K	146.89
298.22 K	146.92
298.72 K	147.13
301.72 K	148.44
303.72 K	149.32
305.72 K	150.19
307.72 K	151.07
310.22 K	152.18
314.22 K	153.96
318.22 K	155.75
321.22 K	157.11

Reference: the NIST ThermoML archive (doi:10.1016/j.jct.2019.04.006)
